Source: US20120053122A1, “METHOD FOR THE PROPHYLAXIS OR TREATMENT OF FLUSHING” (priority 2009, published 2012)
Read-outs that look alike come from different tables or passages of the source.

Assays:
PMP flushing [1] = conditions: in vivo; cited from earlier work
breast cancer = breast cancer survivors; cited from earlier work
PMP flushing [2] = test system: PMP flushing
Description: Three women who were referred for treatment of severe PMP flushing were included in the pilot study, after signing an informed consent. All three had frequent and severe flushing, during daytime as well as during the night. Sleep was often disturbed by flushes and sweat attacks, often forcing a change of clothes and/or bed linen. Physical examination in these patients was unremarkable and other causes of flushing were excluded. Thyroid function was normal, 24 hour urinary hydroxy-indol-acetic acid and catecholamines were within the reference range, serum tryptase was normal, and none used any medication known to induce flushing.

Compound: estrogen
- Effectiveness against PMP flushing relative to placebo treatment (PMP flushing [1]): four times as effective
- Reduction of PMP flush frequency (PMP flushing [1]): 80-90%
- Increased risk of a new primary or a breast cancer recurrence (breast cancer): three-fold

Compound: Clc1cccc(Cl)c1N=C1NCCN1 [Clonidine]
- Effect on flushing (PMP flushing [2]; Patient 1, up to 75 μg twice a day): no beneficial effect
- Effect on flushing (PMP flushing [2]; Patient 2, 50 μg twice a day): no beneficial effect
- Effect on flushing (PMP flushing [2]; Patient 3, 75 μg twice a day): no effect whatsoever
- Benefit on flushing (PMP flushing [2]; all three patients, previous use): without experiencing a significant benefit

Compound: NCC1(CC(=O)O)CCCCC1 [gabapentin]
- Effectiveness against PMP flushing relative to placebo treatment (PMP flushing [1]): about twice as effective as placebo treatment

Compound: Fc1ccc([C@@H]2CCNC[C@H]2COc2ccc3c(c2)OCO3)cc1 [paroxetine]
- Effectiveness against PMP flushing relative to placebo treatment (PMP flushing [1]): about twice as effective as placebo treatment

Compound: COc1ccc(C(CN(C)C)C2(O)CCCCC2)cc1 (stereo not shown) [venlafaxine]
- Effectiveness against PMP flushing relative to placebo treatment (PMP flushing [1]): about twice as effective as placebo treatment
